Assay results as given in US20070161551A1, “Methods and compositions for the treatment of lipodystrophy” (priority 2004, published 2007).
Where two headings read alike, the source gives them in different places.

Assays:
patients with HIV/AIDS = details: cited from earlier work; for insulin-like growth factor-I (IGF-I) levels: during treatment
[1] = tested on: HIV/AIDS wasting patients; details: cited from earlier work
ob/ob mice = details: daily injections, cited from earlier work
normal mice = details: cited from earlier work
patients with HADDS = details: cited from earlier work
[2] = tested on: AIDS patients that manifest symptoms of HADDS; test: Combined rhGH (SEROSTIM) plus statin therapy in AIDS patients with HADDS symptoms; type: in vivo, human; details: after 3 months; combined therapy versus rhGH alone or statin alone
Protocol: AIDS patients with a history of long-term use (an average of 12 months) of HAART that manifest symptoms of HADDS, including buffalo humps, central adiposity and peripheral muscle wasting associated with fatigue, along with elevated levels of plasma triglycerides and/or cholesterol are selected for the study. Therapy with rhGH (SEROSTIM®) is initiated in all patients at a dose of e.g., 4 mg/day subcutaneously (other concentrations, e.g., 6 mg/day could be used). At the same time, the patients are treated with a statin in a dosage amount of 40 mg/day, which is administered orally. This dosage amount is based on the average dose of statin drugs commonly administered for antilipemic purposes. The patients are maintained on this […] for three months and monitored every two weeks for improvements of fat maldistribution. In parallel therapies, patients are treated with just rhGH and just statin.

[3] = tested on: patients with overt AIDS wasting; details: cited from earlier work
[4] = at 12 weeks, not deemed clinically significant (Engleson et al. 1999)
[5] = rhGH 4 to 6 mg/day, by four months (Torres 1999)

Substance: hGH: Human growth hormone, single polypeptide chain of 191 amino acids having two disulfide bonds
- weight loss preceding the study (patients with HIV/AIDS; 5.0 mg qod, four patients who completed the study): reversed
- safety of supraphysiologic doses ([1]; in vivo, sc): safely administered

Substance: leptin: protein hormone of approximately 16 kDa encoded by the obese (ob) gene; recombinant mouse or human leptin
- food intake (ob/ob mice; within a few days): dramatic reduction
- reduction in body weight (ob/ob mice; within a month): ~50%
- adipose tissue (normal mice; mouse, in vivo): profound depletion of adipose tissue
- body weight (normal mice; mouse, in vivo): lose weight
- lean mass (normal mice; mouse, in vivo): increases in lean mass
- lipolysis in adipose tissue (normal mice; no apparent effect on lean tissue, species not stated): promotes lipolysis

Substance: rhGH: Recombinant human growth hormone, rhGH, produced by Serono S. A. as SEROSTIM®
- insulin-like growth factor-I (IGF-I) levels (patients with HIV/AIDS; 2.5 mg qod): no significant change
- insulin-like growth factor-I (IGF-I) levels (patients with HIV/AIDS; 5.0 mg qod): increased significantly
- visceral adiposity (patients with HADDS; Engleson et al. 1999, Mauss et al. 1998): reduce
- solitary lipomas (patients with HADDS; Milano et al. 1999): reduce
- buffalo hump (patients with HADDS; Torres 1998, 1999): reduce
- abdominal girth (patients with HADDS; Wanke et al. 1999): reduce
- HDL cholesterol and glucose (patients with HADDS; [4]): increased
- total cholesterol and fasting triglycerides (patients with HADDS; [4]): dropped significantly
- collective side effects of rhGH administration (patients with HADDS; human, in vivo): swelling of the fingers or paresthesia due to tissue turgor, a few transient elevations of fasting glucose and triglycerides
- lean body mass and body cell mass (patients with HADDS; quantified by bioelectrical impedance analysis): increased
- change in peripheral lipodystrophy (patients with HADDS; [5]): no change
- increase in fat free mass (patients with HADDS; [5]): 5 to 10%
- size and firmness of buffalo humps (patients with HADDS; [5]): significantly reduces
- truncal adiposity (patients with HADDS; [5]): reduces
- changes in body weight, total body fat, or blood lipids (patients with HADDS; rhGH 4 to 6 mg/day, during the treatment period (Torres 1999)): no significant or consistent changes
- abnormally accumulated fat, compared to baseline (patients with HADDS; s.c., 3 to 6 mg per day for 12 to 24 weeks): significantly reduces
- improvement in fat maldistribution [2]: do not experience as dramatic an improvement
- effectiveness of a three-month course of therapy ([1]; over 10,000 HIV/AIDS wasting patients since 1996): effective in the majority of patients
- lean body mass and weight ([3]; 0.1 mg/kg/day, 12 weeks, compared to placebo): significant increases
- tolerability of relatively high doses ([3]; 6 mg/day s.c., many patients with overt AIDS wasting): without developing adverse effects that require dose reduction or cessation of therapy
